From article PMC9254149 (RSC Advances, 2022)

Legend:
Format in all cases: cell-based, human
[1] = system: IR-HepG2 cells; test: Glucose consumption in IR-HepG2 cells; conditions: 24 h
[2] = system: HepG2 cells; test: Cell viability by CCK-8 method; conditions: Homo sapiens, HepG2, 24 h, read-out: IC50 (cell viability)
[3] = Cell viability by CCK-8 method; conditions: human, HepG2 cells

Row | IC50 [2] | Structure (SMILES) | Glucose consumption ([1]; 2.5 μM) | Glucose consumption ([1]; 5.0 μM) | Glucose consumption ([1]; 10.0 μM) | Glucose consumption ([1]; 12.5 μM) | Glucose consumption ([1]; 15 μM) | viability at 24 h, 10 µM [3] | viability at 24 h, 20 µM [3] | viability at 24 h, 30 µM [3] | viability at 24 h, 40 µM [3] | viability at 24 h, 50 µM [3]
1 | 34 µM | CC(C)=CCCC(C)(O)C(O)CCC(C)CCO (stereo not drawn) [Compound 3, 2,6,10-trimethyl-6,7,12-trihydroxy-dodec-2-ene] | 2.06 ± 1.27 mM | 2.43 ± 0.67 mM | 2.66 ± 0.56 mM | 2.86 ± 0.71 mM | 2.44 ± 0.60 mM | 94.8 ± 1.94% | 83.5 ± 3.68% | 60.3 ± 3.33% | 36.3 ± 1.62% | 33.4 ± 1.9%
2 | > 50 µM | C[C@@H]1O[C@@H](O[C@H]2[C@H](O[C@H]3CC[C@@]4(C)[C@@H](CC[C@]5(C)[C@@H]4CC=C4[C@@H]6CC(C)(C)CC[C@]6(C(=O)O)CC[C@]45C)[C@]3(C)CO)OC[C@H](O)[C@@H]2O)[C@H](O)[C@H](O)[C@H]1O [Compound 5, α-hederin] | 6.31 ± 0.96 mM | – | 7.75 ± 0.84 mM | 8.97 ± 0.37 mM | 9.99 ± 0.95 mM | 98.57 ± 0.57% | 93.4 ± 1.23% | 89.4 ± 1.16% | 76.1 ± 1.73% | 73.3 ± 2.58%
